Reference: ChEMBL document CHEMBL1150315, “Potent and orally bioavailable zwitterion GnRH antagonists with low CYP3A4 inhibitory activity” (Bioorg Med Chem Lett, 2008)

What was measured:
[1] = Oral bioavailability in cynomolgus monkey at 10 mg/kg; assay type: ADME, organism-based, Macaca fascicularis; details: in vivo
[2] = Tmax in Sprague-Dawley rat at 10 mg/kg, po or 10 mg/kg, iv; assay type: ADME, organism-based; details: in vivo
[3] = Clearance in Sprague-Dawley rat at 10 mg/kg, iv; assay type: ADME, organism-based; design: dose 10 mg/kg, route intravenous; details: in vivo
[4] = AUC in cynomolgus monkey at 10 mg/kg, po; assay type: ADME, organism-based, Macaca fascicularis; design: dose 10 mg/kg, route oral; details: plasma
[5] = Tmax in cynomolgus monkey at 10 mg/kg, po; assay type: ADME, organism-based, Macaca fascicularis; design: dose 10 mg/kg, route oral; details: in vivo
[6] = Half life in cynomolgus monkey at 10 mg/kg, iv; assay type: ADME, organism-based, Macaca fascicularis; design: dose 10 mg/kg, route intravenous; details: in vivo
[7] = Cmax in Sprague-Dawley rat at 10 mg/kg, po or 10 mg/kg, iv; assay type: ADME, organism-based; details: in vivo
[8] = Volume of distribution in cynomolgus monkey at 10 mg/kg, iv; assay type: ADME, organism-based, Macaca fascicularis; design: dose 10 mg/kg, route intravenous; details: in vivo
[9] = Volume of distribution in Sprague-Dawley rat at 10 mg/kg, iv; assay type: ADME, organism-based; design: dose 10 mg/kg, route intravenous; details: in vivo
[10] = Lipophilicity, log D at pH 7.4; assay type: physicochemical; details: buffer
[11] = Clearance in cynomolgus monkey at 10 mg/kg, iv; assay type: ADME, organism-based, Macaca fascicularis; design: dose 10 mg/kg, route intravenous; details: in vivo
[12] = Half life in Sprague-Dawley rat at 10 mg/kg, iv; assay type: ADME, organism-based; design: dose 10 mg/kg, route intravenous; details: in vivo
[13] = Cmax in cynomolgus monkey at 10 mg/kg, po; assay type: ADME, organism-based, Macaca fascicularis; design: dose 10 mg/kg, route oral; details: in vivo
[14] = AUC in Sprague-Dawley rat at 10 mg/kg, po; assay type: ADME, organism-based; design: dose 10 mg/kg, route oral; details: plasma
[15] = Oral bioavailability in Sprague-Dawley rat at 10 mg/kg; assay type: ADME, organism-based; details: in vivo
[16] = Dissociation constant, pKa of the compound; assay type: physicochemical

Compound | bioavailability [1] [%] | Tmax [2] [min] | clearance [3] [mL/min/kg] | AUC [4] [ng·h/mL] | Tmax [5] [min] | half-life [6] [min] | Cmax [7] [ng/mL] | Vd [8] [L/kg] | Vd [9] [L/kg] | logD [10] | clearance [11] [mL/min/kg] | half-life [12] [min] | Cmax [13] [ng/mL] | AUC [14] [ng·h/mL] | bioavailability [15] [%] | pKa [16]
O=C(O)CCCN[C@@H](Cn1c(=O)c(-c2ccccc2Cl)cn(Cc2c(F)cccc2C(F)(F)F)c1=O)c1ccccc1 | 52.7 | 15 | 37.6 | 11100 | 37.8 | 450 | 149 | 4.9 | 1.3 | 2.1 | 7.9 | 24 | 7870 | 132 | 3 | –
COc1cccc(-c2cn(Cc3c(F)cccc3C(F)(F)F)c(=O)n(C[C@H](NCCCC(=O)O)c3ccccc3)c2=O)c1F | 22.6 | 15 | 64.1 | 1900 | 30 | 60 | 77 | 1.8 | 1.7 | 1.8 | 20.9 | 18 | 2040 | 63.3 | 2.4 | 4.16
